From patent US8076103B2, “Eukaryotic expression system for the incorporation of stable isotopes into proteins” (The Board of Trustees of the Leland Stanford Junior …, priority 2007, dated 2011) come the findings set out here.

This assay has as its target T1, human β2AR (Homo sapiens, UniProt P07550).
T1 construct: made in house; host or cells: Trichoplusia ni larvae orally infected with occluded recombinant baculovirus; crude membrane fraction
The assay is described as follows: Saturation binding of [^3H]-dihydroalprenolol to T. ni membranes expressing β2AR. The conditions noted are these: 4 days after oral infection. The procedure:
This vector was used to produce orally infectious occluded baculovirus as follows. Sf9 cells were infected with above vector and allowed to grow for approximately four days until their nuclei were filled with polyhedral inclusion bodies (PIBs). The cells were pelleted by centrifugation, and lysed by resuspension and douncing in SDS (0.5%). PIBs were pelleted from the lysate by a high-speed spin, washed with sodium chloride (500 mM), and resuspended in distilled water. T. ni larvae were infected with occluded baculovirus by applying drops of purified PIBs (˜10^7 PIBs per cube) to small cubes of insect diet. Newly molted 5th instar larvae (mass ˜100 mg) were starved for 6 hours and then permitted to feed on the infected diet. […] These larvae were frozen in liquid nitrogen and stored at −80° C. Larvae were subsequently lysed and a crude membrane fraction was prepared. Saturation binding was performed with [^3H]dihydroalprenolol, a βAR antagonist.

pKd: −log10 of the molar value.

T1 sequence (P07550 whole entry): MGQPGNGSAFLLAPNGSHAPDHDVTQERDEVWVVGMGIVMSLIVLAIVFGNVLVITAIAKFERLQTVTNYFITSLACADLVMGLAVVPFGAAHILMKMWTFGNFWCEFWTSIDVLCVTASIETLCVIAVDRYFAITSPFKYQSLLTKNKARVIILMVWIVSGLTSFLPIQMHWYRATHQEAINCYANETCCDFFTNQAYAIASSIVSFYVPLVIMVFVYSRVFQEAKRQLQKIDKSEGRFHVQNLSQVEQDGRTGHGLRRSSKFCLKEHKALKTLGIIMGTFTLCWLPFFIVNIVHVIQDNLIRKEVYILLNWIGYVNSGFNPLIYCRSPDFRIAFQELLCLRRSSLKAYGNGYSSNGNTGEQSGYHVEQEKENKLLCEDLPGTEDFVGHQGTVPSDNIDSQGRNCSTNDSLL

`CCCc1ccccc1OCC(O)CNC(C)C` (centres unmarked) [[^3H]-dihydroalprenolol]: the Bmax is given as 16 pmol/mg total protein and the pKd – broadly, the Kd on a negative log10 scale, so that one unit is a factor of ten – was 8.80.
